From patent publication US11020422B2, “Cyclodextrin for the treatment of lysosomal storage diseases” (The United States of America, as represented by the …, priority 2012, dated 2021)
Like-named read-outs stand apart in the source and are kept apart here.

Tests used:
Wolman fibroblasts [1] = assay: Amplex-Red cholesterol assay in Wolman fibroblasts; assay type: cell-based, human; details: Wolman fibroblasts
Description: (§1) Amplex-Red Cholesterol Assay—Total cholesterol in patient cells was measured by the Amplex-Red Cholesterol Assay Kit (Invitrogen). The unesterified cholesterol was determined using the same kit without the enzyme […]. Esterified cholesterol was determined as the difference between the total and unesterified cholesterol values. The cells were seeded to black, tissue culture-treated 96-well, 384-well or 1536-well plates at 4000, 1000, 300 cells/well in 100, 20 or 5 μl medium by a Multidrop Combi dispenser (Thermo Scientific, Waltham, Mass.) and cultured for 24 hr. The assay plates were added with compound dilution in DMSO solution using a Pintool station (Klaypsys, San Diego, Calif.) and cultured for 3 days. The cells were washed twice manually for 96-well or 384-well plates or using a centrifugation method in which the inverted plates were placed on a stack of paper towel and centrifuged at 800 rpm for 1 min followed by addition of 7 μl/well PBS (added gently with a 45 degree angled liquid dispenser (Klaypsys). The cholesterol assay mixture from the kit was added at 100, 20 or 2.5 μl/well for 96-well, 384-well or 1536-well plates and incubated for 1 hr at 37° C. The resulted fluorescence intensity was measured with excitation of 560 (±10) and emission of 590 (±10) in a fluorescence plate reader (Tecan, Durham, N.C.).

Wolman fibroblasts [2] = assay: β-Hexosaminidase (HEXB) release, lysosomal exocytosis; assay type: cell-based, human; details: 40 μM, 24 hours, compared with vehicle treated cells
Description: Measurement of β-Hexosaminidase (HEXB) Release—Fibroblasts were cultured in 24-well plates at 30,000 cells/well in 0.4 ml medium for one day at 37° C. After being washed twice with the assay buffer (DMEM with 2 mM D-mannose 6-phosphate sodium salt), the cells with 0.4 ml/well the assay buffer were incubated at 37° with 0.2 ml/well compound in assay buffer. […] The rest of assay buffer in the 24-well plate was discarded followed by addition of 0.6 ml 1% Triton-X100 in dH2O to lyse the cells. After incubation at 37° C. for 30 min. 6 μl/well cell lysate were added to the 96-well plate with 24 μl assay buffer followed by 90 μl/well 2.25 mM HEXB substrate, 4-Methylumbelliferyl N-acetyl-β-D-glucosaminide (Sigma-Aldrich, #M2133), in a 25 mM citric acid buffer at pH 4.5. The 96-well plate was then measured in the Tecan fluorescence plate reader (Ex=365±20 nm and Em=460±20 nm) after 1 hr incubation at 37° C. and addition of 100 μl/well stop solution (1 M glycine and 1 M NaOH at pH 10.5).
FIG. 3. […] We measured lysosomal exocytosis in delta-T-treated Wolman fibroblasts by determining the activity of beta-hexosaminidase (HEXB), a lysosomal enzyme, in the extracellular medium.
In brief, the level of lysosomal exocytosis was determined by measuring the level of the lysosomal enzyme HEXB secreted into the culture medium following treatment with drug.

[3] = system: NPC1 and Wolman fibroblasts, control fibroblasts; assay: Intracellular cytosolic Ca2+ measurement (Fluo-8); assay type: cell-based, human
Source text: (§2) FIG. 4. (calcium assay) Delta-T increases intracellular Ca^2+ concentration and ameliorates lysosomal calcium deficiency in NPC1 cells—Increase in the concentration of intracellular Ca^2+, an important second messenger, triggers a variety of cellular responses including lysosomal exocytosis. In NPC1 fibroblasts there is a dysregulation of calcium homeostasis, as evidenced by lysosomal Ca^2+ deficiency. […] Consistent with an earlier report, lysosomal Ca^2+ was reduced in NPC1 cells compared with that in control cells.

NPC1 fibroblasts = assay: Lysosomal Ca2+ released by GPN in NPC1 fibroblasts; assay type: cell-based, human; details: 40 μM, 24 hours
Source text: as §2

[4] = system: fibroblasts derived from patients with lysosomal storage diseases; assay: LysoTracker dye staining of enlarged lysosomes; assay type: cell-based, human
Description: On the experimental day, cells were live-stained with 100 μl/well 50 nM LysoTracker-Red DND-99 dye (Invitrogen, #L-7528) in medium at 37° C. for 1 hr followed by plate washing twice with PBS. The plate was then fixed in 100 μl/well 3.2% formaldehyde for 1 hr and washed for two times with PBS. […] After washing twice with PBS, the plates were stored at 4° C. until imaging analysis. DAPI filter set and TRITC filter set in the Incell2000 imaging plate reader were used to visualize Hoechst nuclear staining and LysoTracker staining, respectively.
FIG. 5. […] To test this hypothesis we measured the ability of delta-T to decrease acidic/lysosomal compartment size as determined by LysoTracker staining in fibroblasts derived from patients with six other diseases. Lysosomal storage occurs in these fibroblasts consists of ceroid/lipofuscin in Batten (CLN2), globotriaosylceramide in Fabry, ceramide in Farber, sphingomyelin in NPA, partially degraded heparan sulfate in Sanfilippo type B, and GM2 ganglioside in Tay-Sachs (Table S1).
The effect of various cyclodextrins, δ-tocopherol, and combinations of cyclodextrins and δ-tocopherol on lipid accumulation and lysosome size in wild-type and lysosomal storage disease fibroblasts (Wolman, Tay-Sach, Fabry, Farber, and MPSIIIB fibroblasts) was determined using Lysotracker assay. In brief, cells were treated with various combinations and concentrations of drugs followed by staining with the Lyso tracker dye which is a basophilic fluorescent probe that accumulates in acidic compartments, i.e. lysosomes, within the cell.

NPC1 skin fibroblasts = assay: Cholesterol accumulation (Amplex-red, filipin) and enlarged lysosomes (Lysotracker) in NPC1 skin fibroblasts; assay type: cell-based, human; details: NPC1 skin fibroblasts; concentration dependent
Description: as §1

NPC1-NSCs = assay: Amplex-red cholesterol assay in NPC1 neural stem cells; assay type: cell-based, human
Description: as §1
Induced pluripotent stem cells (IPSCs) from the NPC1 skin fibroblasts were generated and differentiated into neural stem cells (NPC1-NSCs).

NPC cells = details: NPC / NPC1 cells; reported; cited from earlier work
[5] = system: NPC1, Wolman and other lysosome storage disorder fibroblasts; assay: Electron microscopy of lysosomal ultrastructure
Description: Electron Microscopy—Fibroblast cells were seeded in 6-well plates at 150,000 cells/well in 5 ml medium and cultured for 1 day in the presence or absence of compounds. Cells were fixed in 2% glutaraldehyde, 0.1 M cacodylate buffer, pH 7.2 for 1 hr at room temperature and then stored at 4° C. until TEM analysis was performed. The cells were post fixed in 1% osmium tetroxide in the same buffer for 1 hour and en bloc stained with 0.5% uranyl acetate in 0.1 M acetate buffer, pH 4.2. The cells were then dehydrated in graded ethanol solutions (35%, 50%, 70%, 95% and 100%) and infiltrated overnight in epoxy resin (Poly/Bed 812, Polysciences). After adding fresh pure resin the cell plates were cured for 72 h in 55° C. After removing the polystyrene plates, suitable areas for thin sectioning were selected, cut out with a jewelry saw and glued onto empty resin stubs. About 70 nm thin sections were cut on an ultramicrotome (Leica EM UC6) and mounted on naked copper grids. The thin sections were double stained (uranyl acetate and lead citrate), examined in a Hitachi H-7650 transmission electron microscope, and images were taken using an AMT CCD camera.
The effects of δ-tocopherol and methyl-β-cyclodextrin on the ultrastructural pathology of lysosomes in lysosome storage disorder cells were investigated by electron microscopy. In brief, following treatment of wild-type and lysosome storage disorder fibroblasts with δ-tocopherol, methyl-β-cyclodextrin, or δ-tocopherol and methyl-β-cyclodextrin, the fibroblasts were fixed and embedded. Thin sections of the embedded cells were then prepared and the ultrastructural pathology was examined by electron microscopy. […] The effects of δ-tocopherol and/or methyl-β-cyclodextrin on the ultrastructural pathology of other lysosome disorder fibroblasts-Farber (FIGS. 7,8 and 10); Tay-Sachs (FIG. 8); Fabry (FIG. 8); Wolman (FIG. 9); NPA (FIG. 9); Batten (FIG. 9); MSIIB (FIG. 9)—were analyzed by electron microscopy.

Wolman fibroblasts [6] = assay: Nile Red staining of neutral lipids in Wolman fibroblasts; details: cultured with compound for 3 days
Description: Nile-red Staining—The cells were cultured and treated as described above in 96-well plates. On the experimental day, cells were washed two times with PBS and live-stained with 1 μM Nile-red dye solution (prepared in cell culture medium) at 100 μl/well followed by an incubation at 37° C. for 10 min. After washed twice with PBS, the cells were fixed in 3.2% paraformaldehyde in PBS at 100 μl/well 1 μg/ml Hoechst 33342 (Invitrogen) in PBS and incubation at RT for 30 min. The plate was washed twice with PBS and the images were measured in Incell2000 imaging plate reader with a FTTC filter set (Ex=480±20 nm and Ex=525±36 nm) for the neutral lipids (cholesteryl esters and triglycerides) and a DAPI filter set for Hoechst nuclear staining.
(Nile Red) Cells were cultured in the presence of delta tocopherol, alpha tocopherol and MBCD plus in combination for 3 days and then stained for neutral lipid with Nile red.
Wolman fibroblasts were treated with δ-tocopherol, α-tocopherol, methyl-β-cyclodextrin, or combinations of δ-tocopherol and methyl-β-cyclodextrin or α-tocopherol and methyl-β-cyclodextrin. […] To further characterize the effect of treatment on lipid accumulation, treated fibroblasts were evaluated using a Nile Red assay to measure neutral lipid accumulation. […] The Nile Red staining was visualized by fluorescent microscopy.

Which “reduction in total cholesterol” value (Wolman fibroblasts [1]; FIGS. 1A-1C) does the source give for `Cc1cc(O)cc2c1O[C@](C)(CCC[C@H](C)CCC[C@H](C)CCCC(C)C)CC2` [delta-tocopherol] here?
The value was “significant reduction”.

And the “reduction in free cholesterol” value (Wolman fibroblasts [1]; FIGS. 1D-1F)?
Its value is “significant reduction”.

What about the “HEXB activity in culture medium” value (Wolman fibroblasts [2]) of the same molecule?
Its value is “increased”.

What about the “cytosolic Ca2+” value [3] of the same molecule?
Its value is “stimulated a transient increase of cytosolic Ca^2+”.

What about the “lysosomal Ca2+ released by GPN” value (NPC1 fibroblasts) of the same molecule?
The value was “significantly increased lysosomal Ca^2+”.

What about the LysoTracker staining ([4]; 40 μM, six fibroblast lines: Batten (CLN2), Fabry, Farber, NPA, Sanfilippo type B, Tay-Sachs) of the same molecule?
The LysoTracker staining was “significantly reduced the LysoTracker staining”.

What about the LysoTracker staining ([4]; NPC1 and Wolman fibroblasts, 40 μM delta-T or 300 μM MBCD) of the same molecule?
The LysoTracker staining was “significantly reduced LysoTracker staining”.

What about the “lipid accumulation and lysosome size (Lysotracker)” value ([4]; Wolman, Tay-Sach, Fabry, Farber, MPSIIIB fibroblasts, FIGS. 5A-5D) of the same molecule?
The value was “reduced lipid accumulation and lysosome size”.

And the “unesterified cholesterol accumulation (Amplex Red)” value (NPC1 skin fibroblasts)?
Its value is “dramatically reduces cellular cholesterol accumulation”.

What about the “potency in NPC1 neuronal cells compared to NPC1 skin fibroblasts” value (NPC1-NSCs) of the same molecule?
The value was “weaker”.

And the “cholesterol accumulation, combination therapy experiment” value (NPC1-NSCs; 50 μM HBPCD, 10 μM delta-tocopherol, alone or combined, compared with 5 mM HBPCD)?
Its value is “did not show the significant cholesterol reduction effect”.

And the IC50 (NPC1-NSCs; NPC1-NSCs, FIG. 12A, read-out: IC50, Amplex-red cholesterol assay)?
The IC50 was 18 µM.

And the IC50 (NPC1-NSCs; human NPC1 neural stem cells, values given under dosage recommendations, read-out: IC50 on reduction of cholesterol accumulation, Amplex-red cholesterol assay)?
Its IC50 is 15 µM.

And the “cholesterol efflux, accumulation or storage” value (NPC cells)?
Its value is “increased the cholesterol efflux from NPC cells and reduced cholesterol accumulation”.

And the “characteristic storage materials in lysosomes (electron microscopy)” value ([5]; 40 μM, NPC1 and Wolman cells)?
Its value is “significantly reduced the characteristic storage materials”.

What about the “abnormal lysosomal structures (electron microscopy)” value ([5]; Wolman fibroblasts, FIG. 6) of the same molecule?
The value was “significantly reduced”.

And the “neutral lipid accumulation (Nile red)” value (Wolman fibroblasts [6]; FIG. 2)?
Its value is “reduces accumulation of neutral lipids”.

What about the “neutral lipid accumulation (Nile red)” value (Wolman fibroblasts [6]; FIG. 2, listed as δ-tocopherol) of the same molecule?
The value was “significantly reduced”.
